Measured values published in US7387997B2 (University of Utah, priority 2004, dated 2008).
Where a SMILES comes first, the peptide text is derived from it. Bridges are numbered along the chain shown (N, C = ends).

What was measured:
[1] = target: Mouse CNS α-MII Site (putative α6β2* nAChRs); assay type: binding
Rat α3β2 nAChR = target: T1, Rat α3β2 nAChR (Rattus norvegicus, UniProt P04757+P12390); test: cell-based; assay type: cell-based
T1 construct: expressed in transfected cells; host or cells: Xenopus laevis oocytes, cRNA injected
T1 sequence (P04757 26-499 limits assumed): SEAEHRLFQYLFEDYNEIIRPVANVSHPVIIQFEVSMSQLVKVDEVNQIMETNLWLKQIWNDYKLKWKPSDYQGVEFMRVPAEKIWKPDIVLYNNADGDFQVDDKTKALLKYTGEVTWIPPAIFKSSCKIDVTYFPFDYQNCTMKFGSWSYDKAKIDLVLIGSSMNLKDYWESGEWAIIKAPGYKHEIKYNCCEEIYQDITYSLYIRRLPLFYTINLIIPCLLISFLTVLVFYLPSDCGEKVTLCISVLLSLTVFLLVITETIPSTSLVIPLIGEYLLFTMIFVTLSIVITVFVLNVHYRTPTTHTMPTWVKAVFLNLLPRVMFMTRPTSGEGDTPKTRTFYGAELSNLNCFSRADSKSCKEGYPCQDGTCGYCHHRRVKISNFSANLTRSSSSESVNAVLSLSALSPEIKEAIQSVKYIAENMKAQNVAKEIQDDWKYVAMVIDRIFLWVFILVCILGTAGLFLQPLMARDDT
T1 sequence (P12390 25-500 limits assumed): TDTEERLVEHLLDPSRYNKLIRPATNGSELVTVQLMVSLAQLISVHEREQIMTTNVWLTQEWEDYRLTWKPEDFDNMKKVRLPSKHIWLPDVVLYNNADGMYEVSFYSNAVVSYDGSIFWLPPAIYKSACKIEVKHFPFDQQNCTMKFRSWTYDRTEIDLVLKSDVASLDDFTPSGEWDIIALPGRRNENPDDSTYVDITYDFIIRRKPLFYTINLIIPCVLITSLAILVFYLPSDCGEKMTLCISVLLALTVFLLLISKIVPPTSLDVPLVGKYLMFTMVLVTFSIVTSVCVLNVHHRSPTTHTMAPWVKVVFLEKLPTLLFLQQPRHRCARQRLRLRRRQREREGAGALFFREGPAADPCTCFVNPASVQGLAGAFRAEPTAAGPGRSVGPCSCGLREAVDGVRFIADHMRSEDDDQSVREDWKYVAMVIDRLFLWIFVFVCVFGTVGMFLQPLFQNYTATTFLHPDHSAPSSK

Rat α6/α3β2β3 nAChR = target: T2, Rat α6/α3β2β3 nAChR (Rattus norvegicus, UniProt P04757+P12390+P43143); test: cell-based; assay type: cell-based
T2 construct: amino acids 1 to 237 of the rat α6 subunit protein; amino acids 233 to 499 of the rat α3 subunit protein; expressed in transfected cells; host or cells: Xenopus laevis oocytes, cRNA injected (pT7TS/rα6α3 for the chimera)
T2 sequence (P43143 31-237 limits assumed): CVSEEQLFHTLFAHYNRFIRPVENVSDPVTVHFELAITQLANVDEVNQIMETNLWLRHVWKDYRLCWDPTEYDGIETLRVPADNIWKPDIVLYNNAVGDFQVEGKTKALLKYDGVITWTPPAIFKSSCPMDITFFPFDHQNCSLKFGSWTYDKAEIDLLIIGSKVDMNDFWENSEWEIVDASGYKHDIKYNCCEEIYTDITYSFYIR
T2 sequence (P04757 233-499 limits assumed): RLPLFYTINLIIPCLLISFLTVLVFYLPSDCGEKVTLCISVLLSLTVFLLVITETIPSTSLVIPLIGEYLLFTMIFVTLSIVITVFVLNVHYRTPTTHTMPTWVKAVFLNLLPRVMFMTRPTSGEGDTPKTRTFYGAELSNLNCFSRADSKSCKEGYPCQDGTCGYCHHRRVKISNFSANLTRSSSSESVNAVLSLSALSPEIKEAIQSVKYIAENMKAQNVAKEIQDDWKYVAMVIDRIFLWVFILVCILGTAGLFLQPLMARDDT
T2 sequence (P12390 25-500 limits assumed): as the sequence (P12390 25-500 limits assumed) above

α4β2 nAChR = target: T3, α4β2 nAChR (Rattus norvegicus, UniProt P09483+P12390); assay type: cell-based
T3 construct: expressed in transfected cells; host or cells: Xenopus laevis oocytes, cRNA injected
T3 sequence (P09483 31-630 limits assumed): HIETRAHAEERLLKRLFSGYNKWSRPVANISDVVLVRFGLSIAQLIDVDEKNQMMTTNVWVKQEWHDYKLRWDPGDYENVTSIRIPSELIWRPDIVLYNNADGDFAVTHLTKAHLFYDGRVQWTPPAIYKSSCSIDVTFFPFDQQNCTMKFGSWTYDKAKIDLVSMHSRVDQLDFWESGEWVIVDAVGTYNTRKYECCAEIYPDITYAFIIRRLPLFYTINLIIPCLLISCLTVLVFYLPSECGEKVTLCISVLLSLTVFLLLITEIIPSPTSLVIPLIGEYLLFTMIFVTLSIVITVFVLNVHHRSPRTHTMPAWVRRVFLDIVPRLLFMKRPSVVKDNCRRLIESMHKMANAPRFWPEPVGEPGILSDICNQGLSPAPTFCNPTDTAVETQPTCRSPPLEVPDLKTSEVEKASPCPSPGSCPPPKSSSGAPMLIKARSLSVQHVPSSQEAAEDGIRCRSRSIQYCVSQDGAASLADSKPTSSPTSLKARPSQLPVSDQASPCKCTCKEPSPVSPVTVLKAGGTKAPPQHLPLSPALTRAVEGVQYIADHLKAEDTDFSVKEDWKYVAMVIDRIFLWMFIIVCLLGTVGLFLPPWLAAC
T3 sequence (P12390 25-500 limits assumed): as the sequence (P12390 25-500 limits assumed) above

Row | SMILES | Ki [1] | Hill slope, α3β2 (Rat α3β2 nAChR) | IC50 (Rat α3β2 nAChR) | Ratio IC50 α3β2/IC50 α6/α3β2β3 (Rat α3β2 nAChR) | IC50 (Rat α6/α3β2β3 nAChR) | ACh response, percentage of control, Rα4β2 (α4β2 nAChR) | Hill slope, α6/α3β2β3 (Rat α6/α3β2β3 nAChR)
1 | CC(C)C[C@@H]1NC(=O)[C@H](CC(N)=O)NC(=O)[C@H](CO)NC(=O)[C@H](Cc2c[nH]cn2)NC(=O)[C@H](CCC(=O)O)NC(=O)[C@H](CC(C)C)NC(=O)[C@H](Cc2c[nH]cn2)NC(=O)[C@@H]2CSSC[C@H](NC(=O)CN)C(=O)N[C@@H](CSSC[C@@H](C(N)=O)NC1=O)C(=O)N[C@@H](CO)C(=O)N[C@@H](CC(N)=O)C(=O)N1CCC[C@H]1C(=O)N[C@@H](C(C)C)C(=O)N2 [MII, reference compound] | 0.22 nM | 0.75±0.13 |  |  |  |  | 
2 | CC(C)C[C@@H]1NC(=O)[C@H](Cc2c[nH]cn2)NC(=O)[C@@H]2CSSC[C@H](NC(=O)CN)C(=O)N[C@@H](CSSC[C@@H](C(N)=O)NC(=O)[C@H](C)NC(=O)[C@H](CC(N)=O)NC(=O)[C@H](CO)NC(=O)[C@H](Cc3c[nH]cn3)NC(=O)[C@H](C)NC1=O)C(=O)N[C@@H](CO)C(=O)N[C@@H](CC(N)=O)C(=O)N1CCC[C@H]1C(=O)N[C@@H](C(C)C)C(=O)N2 [MII[E11A; L15A]] (H-GCCSNPVCHLAHSNAC-NH2; disulfide 2-8, 3-16) |  |  | 50.1 nM | 121 | 0.415 nM |  | 
3 | CC(C)C[C@@H]1NC(=O)[C@H](C)NC(=O)[C@@H]2CSSC[C@H](NC(=O)CN)C(=O)N[C@@H](CSSC[C@@H](C(N)=O)NC(=O)[C@H](CC(C)C)NC(=O)[C@H](CC(N)=O)NC(=O)[C@H](CO)NC(=O)[C@H](Cc3c[nH]cn3)NC(=O)[C@H](CCC(=O)O)NC1=O)C(=O)N[C@@H](CO)C(=O)N[C@@H](CC(N)=O)C(=O)N1CCC[C@H]1C(=O)N[C@@H](C(C)C)C(=O)N2 [MII[H9A]] (H-GCCSNPVCALEHSNLC-NH2; disulfide 2-8, 3-16) | 1.1 nM | 0.83±0.08 | 59 nM | 74.7 | 0.79 nM | 105.8±2.4 % of control | 0.73±0.08
4 | CC(C)C[C@@H]1NC(=O)[C@H](CC(N)=O)NC(=O)[C@H](CO)NC(=O)[C@H](C)NC(=O)[C@H](CCC(=O)O)NC(=O)[C@H](CC(C)C)NC(=O)[C@H](Cc2c[nH]cn2)NC(=O)[C@@H]2CSSC[C@H](NC(=O)CN)C(=O)N[C@@H](CSSC[C@@H](C(N)=O)NC1=O)C(=O)N[C@@H](CO)C(=O)N[C@@H](CC(N)=O)C(=O)N1CCC[C@H]1C(=O)N[C@@H](C(C)C)C(=O)N2 [MII[H12A]] (H-GCCSNPVCHLEASNLC-NH2; disulfide 2-8, 3-16) |  |  | 4660 nM | 7.72 | 604 nM |  | 
5 | CC(C)[C@@H]1NC(=O)[C@@H]2CCCN2C(=O)[C@H](CC(N)=O)NC(=O)[C@H](CO)NC(=O)[C@@H]2CSSC[C@@H](C(N)=O)NC(=O)[C@H](C)NC(=O)[C@H](CC(N)=O)NC(=O)[C@H](CO)NC(=O)[C@H](Cc3c[nH]cn3)NC(=O)[C@H](CCC(=O)O)NC(=O)[C@H](C)NC(=O)[C@H](Cc3c[nH]cn3)NC(=O)[C@H](CSSC[C@H](NC(=O)CN)C(=O)N2)NC1=O [MII[L10A; L15A]] (H-GCCSNPVCHAEHSNAC-NH2; disulfide 2-8, 3-16) |  |  | 17.2 nM | 9.56 | 1.8 nM |  | 
6 | CC(C)C[C@@H]1NC(=O)[C@H](CC(N)=O)NC(=O)[C@H](CO)NC(=O)[C@H](Cc2c[nH]cn2)NC(=O)[C@H](CCC(=O)O)NC(=O)[C@H](C)NC(=O)[C@H](Cc2c[nH]cn2)NC(=O)[C@@H]2CSSC[C@H](NC(=O)CN)C(=O)N[C@@H](CSSC[C@@H](C(N)=O)NC1=O)C(=O)N[C@@H](CO)C(=O)N[C@@H](CC(N)=O)C(=O)N1CCC[C@H]1C(=O)N[C@@H](C(C)C)C(=O)N2 [MII[L10A]] (H-GCCSNPVCHAEHSNLC-NH2; disulfide 2-8, 3-16) |  |  | 1.47 nM | 3.05 | 0.482 nM |  | 
7 | CC(C)C[C@@H]1NC(=O)[C@H](Cc2c[nH]cn2)NC(=O)[C@@H]2CSSC[C@H](NC(=O)CN)C(=O)N[C@@H](CSSC[C@@H](C(N)=O)NC(=O)[C@H](C)NC(=O)[C@H](CC(N)=O)NC(=O)[C@H](CO)NC(=O)[C@H](Cc3c[nH]cn3)NC(=O)[C@H](CCC(=O)O)NC1=O)C(=O)N[C@@H](CO)C(=O)N[C@@H](CC(N)=O)C(=O)N1CCC[C@H]1C(=O)N[C@@H](C(C)C)C(=O)N2 [MII[L15A]] (H-GCCSNPVCHLEHSNAC-NH2; disulfide 2-8, 3-16) | 0.3 nM | 0.58±0.08 | 34.1 nM | 37.2 | 0.917 nM | 102.3±5.3 % of control | 0.75±0.08
8 | CC(C)C[C@@H]1NC(=O)[C@H](CC(N)=O)NC(=O)[C@H](CO)NC(=O)[C@H](Cc2c[nH]cn2)NC(=O)[C@H](CCC(=O)O)NC(=O)[C@H](CC(C)C)NC(=O)[C@H](Cc2c[nH]cn2)NC(=O)[C@@H]2CSSC[C@H](NC(=O)CN)C(=O)N[C@@H](CSSC[C@@H](C(N)=O)NC1=O)C(=O)N[C@@H](CO)C(=O)N[C@@H](C)C(=O)N1CCC[C@H]1C(=O)N[C@@H](C(C)C)C(=O)N2 [MII[N5A]] (H-GCCSAPVCHLEHSNLC-NH2; disulfide 2-8, 3-16) |  |  | > 10000 nM | >12.6 | 793 nM |  | 
9 | CC(C)C[C@@H]1NC(=O)[C@H](C)NC(=O)[C@H](CO)NC(=O)[C@H](Cc2c[nH]cn2)NC(=O)[C@H](CCC(=O)O)NC(=O)[C@H](CC(C)C)NC(=O)[C@H](Cc2c[nH]cn2)NC(=O)[C@@H]2CSSC[C@H](NC(=O)CN)C(=O)N[C@@H](CSSC[C@@H](C(N)=O)NC1=O)C(=O)N[C@@H](CO)C(=O)N[C@@H](CC(N)=O)C(=O)N1CCC[C@H]1C(=O)N[C@@H](C(C)C)C(=O)N2 [MII[N14A]] (H-GCCSNPVCHLEHSALC-NH2; disulfide 2-8, 3-16) |  |  | 25.7 nM | 24.2 | 1.06 nM |  | 
10 | CC(C)C[C@@H]1NC(=O)[C@H](CC(N)=O)NC(=O)[C@H](CO)NC(=O)[C@H](Cc2c[nH]cn2)NC(=O)[C@H](CCC(=O)O)NC(=O)[C@H](CC(C)C)NC(=O)[C@H](Cc2c[nH]cn2)NC(=O)[C@@H]2CSSC[C@H](NC(=O)CN)C(=O)N[C@@H](CSSC[C@@H](C(N)=O)NC1=O)C(=O)N[C@@H](CO)C(=O)N[C@@H](CC(N)=O)C(=O)N[C@@H](C)C(=O)N[C@@H](C(C)C)C(=O)N2 [MII[P6A]] (H-GCCSNAVCHLEHSNLC-NH2; disulfide 2-8, 3-16) |  |  | 4420 nM | 17.5 | 253 nM |  | 
11 | CC(C)C[C@@H]1NC(=O)[C@H](C)NC(=O)[C@@H]2CSSC[C@H](NC(=O)CN)C(=O)N[C@@H](CSSC[C@@H](C(N)=O)NC(=O)[C@H](CC(C)C)NC(=O)[C@H](CC(N)=O)NC(=O)[C@H](CO)NC(=O)[C@H](Cc3c[nH]cn3)NC(=O)[C@H](CCC(=O)O)NC1=O)C(=O)N[C@@H](C)C(=O)N[C@@H](CC(N)=O)C(=O)N1CCC[C@H]1C(=O)N[C@@H](C(C)C)C(=O)N2 [MII[S4A; H9A]] (H-GCCANPVCALEHSNLC-NH2; disulfide 2-8, 3-16) |  |  | 207 nM | 105 | 1.97 nM |  | 
12 | CC(C)C[C@@H]1NC(=O)[C@H](CC(N)=O)NC(=O)[C@H](CO)NC(=O)[C@H](Cc2c[nH]cn2)NC(=O)[C@H](CCC(=O)O)NC(=O)[C@H](CC(C)C)NC(=O)[C@H](Cc2c[nH]cn2)NC(=O)[C@@H]2CSSC[C@H](NC(=O)CN)C(=O)N[C@@H](CSSC[C@@H](C(N)=O)NC1=O)C(=O)N[C@@H](C)C(=O)N[C@@H](CC(N)=O)C(=O)N1CCC[C@H]1C(=O)N[C@@H](C(C)C)C(=O)N2 [MII[S4A]] (H-GCCANPVCHLEHSNLC-NH2; disulfide 2-8, 3-16) |  |  | 15.8 nM | 21.56 | 0.733 nM |  | 
13 | CC(C)C[C@@H]1NC(=O)[C@H](CC(N)=O)NC(=O)[C@H](C)NC(=O)[C@H](Cc2c[nH]cn2)NC(=O)[C@H](CCC(=O)O)NC(=O)[C@H](CC(C)C)NC(=O)[C@H](Cc2c[nH]cn2)NC(=O)[C@@H]2CSSC[C@H](NC(=O)CN)C(=O)N[C@@H](CSSC[C@@H](C(N)=O)NC1=O)C(=O)N[C@@H](CO)C(=O)N[C@@H](CC(N)=O)C(=O)N1CCC[C@H]1C(=O)N[C@@H](C(C)C)C(=O)N2 [MII[S13A]] (H-GCCSNPVCHLEHANLC-NH2; disulfide 2-8, 3-16) |  |  | 2.54 nM | 3.85 | 0.659 nM |  | 
14 | CC(C)C[C@@H]1NC(=O)[C@H](CC(N)=O)NC(=O)[C@H](CO)NC(=O)[C@H](Cc2c[nH]cn2)NC(=O)[C@H](CCC(=O)O)NC(=O)[C@H](CC(C)C)NC(=O)[C@H](Cc2c[nH]cn2)NC(=O)[C@@H]2CSSC[C@H](NC(=O)CN)C(=O)N[C@@H](CSSC[C@@H](C(N)=O)NC1=O)C(=O)N[C@@H](CO)C(=O)N[C@@H](CC(N)=O)C(=O)N1CCC[C@H]1C(=O)N[C@@H](C)C(=O)N2 [MII[V7A]] (H-GCCSNPACHLEHSNLC-NH2; disulfide 2-8, 3-16) |  |  | 4.46 nM | 0.421 | 10.6 nM |  | 
